Where two headings read alike, the source gives them in different places.
Key:
Assay type in all cases: cell-based
MOLT-4 cells [1] = test: Cell viability assay, MTS, 48 h, MOLT-4; settings: for IC50: Homo sapiens, MOLT-4, 48 h
Method: (§1) Acute lymphoblastic leukemia cells (MOLT-4 and RS4; 11) or small cell lung cancer (NCI-H146 or simply H146) were incubated with increasing concentrations of Bcl-xL degraders for 48 h. Cell viability was measured by tetrazolium-based MTS assay.

human platelets [2] = test: Human platelet viability, MTS assay; settings: for IC50: Platelet, MTS assay (Table 2, FIG. 2)
Method: FIG. 2. depicts dose response curves of ABT-263 and Compound 53 in MOLT-4 T-ALL cells & human platelets determined by MTS assay.
(§2) Cancer cells from different tissue origins including acute lymphoblastic leukemia (MOLT4 and RS4; 11), small cell lung cancer (NCI-H146 or simply H146), and multiple myeloma (EJM and H929) were incubated with increasing concentrations of Examples 1-21 or ABT-263 for 72 h. Cell viability was measured by tetrazolium-based MTS assay. 5×10^4 to 1×10^5 suspension cells or 3×10^3 to 5×10^3 adherent cells were seeded and treated in 96-well plates for 72 h. The EC50 values of individual agents were calculated with GraphPad Prism.

MOLT-4 cells [3] = test: Cell viability assay, MTS, 72 h, MOLT-4; settings: for IC50: Homo sapiens
Method: as §2

human platelets [4] = test: Human platelet viability, 48 h; settings: for IC50: Platelet
NCI-H146 cells = test: Cell viability assay, MTS, 48 h, NCI-H146; settings: for IC50: Homo sapiens
Method: as §1

RS4;11 cells = test: Cell viability assay, MTS, 48 h, RS4;11; settings: for IC50: Homo sapiens, RS4-11, 48 h
Method: as §1

RS4 cells = test: Cell viability assay, MTS, 72 h, RS4;11; settings: Homo sapiens
Method: as §2

caspase-3 and PARP = test: Downstream apoptotic mechanism, western blot of caspase-3 and PARP in MOLT-4 cells; settings: after 16 h treatment
Method: […] At the end of incubation, cells were harvested for western blot analysis of cleaved and full length caspase-3 and poly (ADP) ribose polymerase (PARP). The antibodies for cleaved caspase-3 (Cat #9661) and PARP (Cat #9532) were purchased from Cell Signaling Technology.

Bcl-xL [5] = biological target: T1, Bcl-xL (Homo sapiens, UniProt Q07817); test: Protein degradation assay in MOLT-4 cells (western blot); design: endogenous in cells; host or cells: MOLT-4 cells; settings: 16 h, read-out: DC50 (concentration with 50% degradation) of Bcl-xL
Method: (§3) MOLT4 cells and human platelets were incubated with increasing concentrations of test compounds for 16 h. The cells were harvested and lysed in RIPA lysis buffer supplemented with protease and phosphatase inhibitor cocktails. An equal amount of protein (20 μg/lane) was resolved on a pre-cast 4-20% SDS-PAGE gel. Proteins were subsequently transferred to NOVEX PVDF membranes by electrophoresis. The membranes were blocked in blocking buffer (5% non-fat dry milk in TBS-T), and incubated with primary antibodies (at optimized concentrations) overnight at 4° C. After three washings in TBS-T, the membranes were incubated with an appropriate HRP-conjugated secondary antibody for 1 h at room temperature. After extensive washing for three times, the proteins of interest were detected with ECL western blotting detection reagents and recorded with autoradiography (Pierce Biotech, Rockford, Ill., USA). The primary antibodies for Bcl-xL (Cat #2762), Bcl-2 (Cat #2872), Mcl-1 (Cat #5453) and β-actin (Cat #4970) were purchased from Cell Signaling technology. The relative band intensity was measured using ImageJ software and normalized to b-actin. The DC50 (concentration with 50% degradation) was calculated using GraphPad Prism.
MOLT-4 cells and human platelets were incubated with increasing concentrations of test compounds for 16 h. The cells were harvested and lysed in RIPA lysis buffer supplemented with protease and phosphatase inhibitor cocktails. An equal amount of protein (20 μg/lane) was resolved on a pre-cast 4-20% SDS-PAGE gel. Proteins were subsequently transferred to NOVEX PVDF membranes by electrophoresis. […] After extensive washing for three times, the proteins of interest were detected with ECL western blotting detection reagents and recorded with autoradiography (Pierce Biotech, Rockford, Ill., USA). […] The relative band intensity was measured using ImageJ software and normalized to β-actin. The DC50 was calculated using GraphPad Prism.

Bcl-xL [6] = biological target: T1, Bcl-xL; test: Protein degradation assay in human platelets (western blot); design: endogenous in cells; host or cells: human platelets; settings: 16 h
Method: as §3, with “The primary antibodies for Bcl-xL (Cat #2762), Bcl-2 (Cat #2872), Mcl-1 (Cat #5453) and β-actin (Cat #4970) were purchased from Cell Signaling technology.” left out
MOLT-4 cells and human platelets were incubated with increasing concentrations of test compounds for 16 h. […] After extensive washing for three times, the proteins of interest were detected with ECL western blotting detection reagents and recorded with autoradiography (Pierce Biotech, Rockford, Ill., USA). […]

[7] = 48 h, read-out: MOLT-4 IC50 (nM, 48 h)
[8] = MOLT-4 T-ALL cells, MTS assay (Table 2, FIG. 2)
[9] = 48 h, read-out: RS4, 11 IC50 (nM, 48 h)
[10] = 48 hours, read-out: IC50 (48 hours) MOLT-4
[11] = 48 hours, read-out: IC50 (48 hours) RS4;11

T1 sequence (Q07817 whole entry): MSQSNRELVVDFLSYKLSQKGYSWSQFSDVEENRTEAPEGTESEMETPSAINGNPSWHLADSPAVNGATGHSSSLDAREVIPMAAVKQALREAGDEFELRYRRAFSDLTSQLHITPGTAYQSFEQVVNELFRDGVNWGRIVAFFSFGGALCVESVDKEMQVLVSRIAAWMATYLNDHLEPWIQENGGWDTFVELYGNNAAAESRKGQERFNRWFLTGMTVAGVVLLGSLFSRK

| IC50 (MOLT-4 cells [1]; [7]) | IC50 (MOLT-4 cells [3]; [8]) | IC50 (NCI-H146 cells) | IC50 (RS4;11 cells; [9]) | IC50 (RS4 cells) | IC50 (MOLT-4 cells [3]; MOLT-4 cells, 72 h, MTS) | DC50 (Bcl-xL [5]) | IC50 (MOLT-4 cells [1]; [10]) | IC50 (RS4;11 cells; [11]) | SMILES | IC50 (human platelets [2]) | IC50 (human platelets [4]) | further results |
| --- | --- | --- | --- | --- | --- | --- | --- | --- | --- | --- | --- | --- |
| 201 nM | 202 nM | 36 nM | 35 nM | – | – | – | – | – | CC1(C)CCC(c2ccc(Cl)cc2)=C(CN2CCN(c3ccc(C(=O)NS(=O)(=O)c4ccc(N[C@H](CCN5CCOCC5)CSc5ccccc5)c(S(=O)(=O)C(F)(F)F)c4)cc3)CC2)C1 [ABT-263, reference compound] | 190 nM | 0.5 µM | – |
| – | – | – | – | 33 nM | 36 nM | – | – | – | CC1(CNC(=O)CCCCCNc2cccc3c2C(=O)N(C2CCC(=O)NC2=O)C3=O)CCC(c2ccc(Cl)cc2)=C(CN2CCN(c3ccc(C(=O)NS(=O)(=O)c4ccc(N[C@H](CCN5CCOCC5)CSc5ccccc5)c(S(=O)(=O)C(F)(F)F)c4)cc3)CC2)C1 (stereo partly drawn) [Compound 62, 4-(4-((4′-chloro-4-((6-((2-(2,6-dioxopiperidin-3-yl)-1,3-dioxoisoindolin-4-yl)amino)hexanamido)methyl)-4-methyl-3,4,5,6-tetrahydro-[1,1′-biphenyl]-2-yl)methyl)piperazin-1-yl)-N-((4-(((R)-4-morpholino-1-(phenylthio)butan-2-yl)amino)-3-((trifluoromethyl)sulfonyl)phenyl)sulfonyl)benzamide] | – | – | – |
| 15.2 nM | – | 45 nM | 9.9 nM | – | – | 11.5 nM | < 50 nM | < 50 nM | Cc1ncsc1-c1ccc([C@H](C)NC(=O)[C@@H]2C[C@@H](O)CN2C(=O)[C@@H](NC(=O)CCCCCCCCC(=O)NC[C@]2(C)CCC(c3ccc(Cl)cc3)=C(CN3CCN(c4ccc(C(=O)NS(=O)(=O)c5ccc(N[C@H](CCN6CCOCC6)CSc6ccccc6)c(S(=O)(=O)C(F)(F)F)c5)cc4)CC3)C2)C(C)(C)C)cc1 [degrader #42, N1-(((R)-4′-chloro-4-methyl-6-((4-(4-(((4-(((R)-4-morpholino-1-(phenylthio)butan-2-yl)amino)-3-((trifluoromethyl)sulfonyl)phenyl)sulfonyl)carbamoyl)phenyl)piperazin-1-yl)methyl)-2,3,4,5-tetrahydro-[1,1′-biphenyl]-4-yl)methyl)-N10-((S)-1-((2S,4R)-4-hydroxy-2-(((S)-1-(4-(4-methylthiazol-5-yl)phenyl)ethyl)carbamoyl)pyrrolidin-1-yl)-3,3-dimethyl-1-oxobutan-2-yl)decanediamide] | – | 1.09 µM | potency in killing MOLT-4 cells compared with ABT-263 (MOLT-4 cells [1]; 48 h, FIG. 7): more potent; effects on human platelets compared with ABT-263 (human platelets [4]; FIG. 7): substantially less effects on human platelets; potency in killing NCI-H146 cells compared with ABT-263 (NCI-H146 cells; FIG. 7): equally potent; potency in killing RS4;11 cells compared with ABT-263 (RS4;11 cells; 48 h, FIG. 7): more potent |

Second part, the compound before the results:

| SMILES | IC50 (MOLT-4 cells [1]; [7]) | IC50 (MOLT-4 cells [3]; [8]) | IC50 (NCI-H146 cells) | IC50 (RS4;11 cells; [9]) | IC50 (RS4 cells) | IC50 (MOLT-4 cells [3]; MOLT-4 cells, 72 h, MTS) | DC50 (Bcl-xL [5]) | IC50 (MOLT-4 cells [1]; [10]) | IC50 (RS4;11 cells; [11]) | IC50 (human platelets [2]) | IC50 (human platelets [4]) | further results |
| --- | --- | --- | --- | --- | --- | --- | --- | --- | --- | --- | --- | --- |
| Cc1ncsc1-c1ccc([C@H](C)NC(=O)[C@@H]2C[C@@H](O)CN2C(=O)[C@@H](NC(=O)CCCCCCCCC(=O)NCC2(C)CCC(c3ccc(Cl)cc3)=C(CN3CCN(c4ccc(C(=O)NS(=O)(=O)c5ccc(N[C@H](CCN6CCOCC6)CSc6ccccc6)c(S(=O)(=O)C(F)(F)F)c5)cc4)CC3)C2)C(C)(C)C)cc1 (stereo partly drawn) [Compound 53, N^1-((4′-chloro-4-methyl-6-((4-(4-(((4-(((R)-4-morpholino-1-(phenylthio)butan-2-yl)amino)-3-((trifluoromethyl)sulfonyl)phenyl)sulfonyl)carbamoyl)phenyl)piperazin-1-yl)methyl)-2,3,4,5-tetrahydro-[1,1′-biphenyl]-4-yl)methyl)-N^10—((S)-1-((2S,4R)-4-hydroxy-2-(((S)-1-(4-(4-methylthiazol-5-yl)phenyl)ethyl)carbamoyl)pyrrolidin-1-yl)-3,3-dimethyl-1-oxobutan-2-yl)decanediamide] | – | 36 nM | – | – | 17.4 nM | 36 nM | – | – | – | 1550 nM | – | effects on human platelets compared with ABT-263 (human platelets [2]; FIG. 2): substantially less effects on human platelets than ABT-263; potency in MOLT-4 cells compared with ABT-263 (MOLT-4 cells [3]; MOLT-4 cells, FIG. 2): more potent than ABT-263 |
| Cc1ncsc1-c1ccc([C@H](C)NC(=O)[C@@H]2C[C@@H](O)CN2C(=O)[C@@H](NC(=O)CCCCCCCCC(=O)NCC2(C)CCC(c3ccc(Cl)cc3)=C(CN3CCN(c4ccc(C(=O)NS(=O)(=O)c5ccc(N[C@H](CCN6CCOCC6)CSc6ccccc6)c(S(=O)(=O)C(F)(F)F)c5)cc4)CC3)C2)C(C)(C)C)cc1 (stereo partly drawn) [degrader #5, N1-((4′-chloro-4-methyl-6-((4-(4-(((4-(((R)-4-morpholino-1-(phenylthio)butan-2-yl)amino)-3-((trifluoromethyl)sulfonyl)phenyl)sulfonyl)carbamoyl)phenyl)piperazin-1-yl)methyl)-2,3,4,5-tetrahydro-[1,1′-biphenyl]-4-yl)methyl)-N10-((S)-1-((2S,4R)-4-hydroxy-2-(((S)-1-(4-(4-methylthiazol-5-yl)phenyl)ethyl)carbamoyl)pyrrolidin-1-yl)-3,3-dimethyl-1-oxobutan-2-yl)decanediamide] | 31 nM | – | 88 nM | 22.2 nM | – | – | 21.5 nM | – | – | – | 3.5 µM | cleavage of caspase-3 and PARP (caspase-3 and PARP): induced cleavage of caspase-3 and PARP; Bcl-xL levels in human platelets (Bcl-xL [6]): did not affect Bcl-xL levels |
| Cc1ncsc1-c1ccc([C@H](C)NC(=O)[C@@H]2C[C@@H](O)CN2C(=O)[C@@H](NC(=O)CCCCCCCCC(=O)NC[C@@]2(C)CCC(c3ccc(Cl)cc3)=C(CN3CCN(c4ccc(C(=O)NS(=O)(=O)c5ccc(N[C@H](CCN6CCOCC6)CSc6ccccc6)c(S(=O)(=O)C(F)(F)F)c5)cc4)CC3)C2)C(C)(C)C)cc1 [degrader #41, N1-(((S)-4′-chloro-4-methyl-6-((4-(4-(((4-(((R)-4-morpholino-1-(phenylthio)butan-2-yl)amino)-3-((trifluoromethyl)sulfonyl)phenyl)sulfonyl)carbamoyl)phenyl)piperazin-1-yl)methyl)-2,3,4,5-tetrahydro-[1,1′-biphenyl]-4-yl)methyl)-N10-((S)-1-((2S,4R)-4-hydroxy-2-(((S)-1-(4-(4-methylthiazol-5-yl)phenyl)ethyl)carbamoyl)pyrrolidin-1-yl)-3,3-dimethyl-1-oxobutan-2-yl)decanediamide] | 154 nM | – | 314 nM | 497 nM | – | – | 101 nM | 150 to 500 nM | > 500 nM | – | 10 µM | – |

Source: US20220169628A1 (University of Florida Research Foundation, Incorporated, priority 2019, published 2022)
